Values of other authors as cited in patent US9878046B2, “Adverse side-effects associated with administration of an anti-hyaluronan agent and methods for ameliorating or preventing the side-effects” (Halozyme, Inc., priority 2010, dated 2018).

Tests used:
[1] = glucocorticoid, route IV or PO as listed; cited from earlier work
B16 melanoma model = conditions: oral administration at 600 mg/kg/d; cited from earlier work

Structure (SMILES): C[C@]12C=CC(=O)C=C1CC[C@@H]1[C@@H]2[C@@H](O)C[C@@]2(C)[C@H]1CC[C@]2(O)C(=O)CO [Prednisolone]
- Equivalent Potency [1]: 5 mg

Structure (SMILES): C[C@]12CCC(=O)C=C1CC[C@@H]1[C@@H]2[C@@H](O)C[C@@]2(C)[C@H]1CC[C@]2(O)C(=O)CO [Hydrocortisone]
- Equivalent Potency [1]: 20 mg

Structure (SMILES): C[C@H]1C[C@@H]2[C@H]([C@@H](O)C[C@@]3(C)[C@H]2CC[C@]3(O)C(=O)COC(=O)CCC(=O)O)[C@@]2(C)C=CC(=O)C=C12 [Methylprednisolone sodium succinate]
- Equivalent Potency [1]: 4 mg

Structure (SMILES): Cc1cc(=O)oc2cc(O)ccc12 [4-MU, 4-Methylumbelliferone]
- reduction of metastases (B16 melanoma model): 64%
